Measurements as given in US4923969A, “Preparation of 99m Tc radiopharmaceuticals” (The Commonwealth of Australia, priority 1983, dated 1990).

Assay: Stability of dried 99mTcNCl4- preparation
Assay type: physicochemical
Experimental: Samples of the ^99m TcNCl4^- preparation were taken to dryness in a rotary evaporator and stored for 24 hours (a) in air at room temperature, (b) at 80° C., and (c) at room temperature and 100% humidity. They were then used to prepare ^99m TcN-DTPA by addition of ligand as before.

storage time for which the dry reagent was stable ("stable for up to") (dry, air at room temperature, 80° C., or room temperature and 100% humidity): ≥ 24 h
Compound: [N]#[99Tc-]([Cl])([Cl])([Cl])[Cl].[Na+] [^99m TcNCl4^-, sodium tetrachloronitridotechnetate]
chromatographic behaviour (HPLC) after storage of the dry reagent (24 hours in air at room temperature, at 80° C., or at room temperature and 100% humidity, tested as 99mTcN-DTPA): No significant difference in chromatographic behaviour
stability of the dry preparation for distribution (dry preparation): sufficiently stable to be prepared in a central laboratory or manufacturing site and distributed to users
